Experimental data from the NIST ThermoML archive (doi:10.1021/je800110r).

Conditions: 293.15 K, Liquid, Vibrating tube method

CCCCCCCCCC [decane]
Conditions	mass density [kg/m3]
6746 kPa	735.1
6773 kPa	735
6794 kPa	734.9
6816 kPa	735
6848 kPa	735
6876 kPa	735
6897 kPa	735
6922 kPa	735.2
6945 kPa	735.2
6978 kPa	735.2
7001 kPa	735
7028 kPa	735.2
7050 kPa	735.3
7069 kPa	735.2
7097 kPa	735.2
7122 kPa	735.3
7137 kPa	735.2
7168 kPa	735.4
7187 kPa	735.3
7209 kPa	735.3
7232 kPa	735.3
7257 kPa	735.4
7276 kPa	735.4
7295 kPa	735.4
7318 kPa	735.4
7338 kPa	735.4
7360 kPa	735.4
7390 kPa	735.4
7414 kPa	735.5
7438 kPa	735.6
7460 kPa	735.5
7485 kPa	735.6
7500 kPa	735.6
7514 kPa	735.6
7532 kPa	735.5
7544 kPa	735.6
7559 kPa	735.5
7573 kPa	735.6
7586 kPa	735.6
7603 kPa	735.6
7621 kPa	735.7
7636 kPa	735.6
7649 kPa	735.6
7665 kPa	735.7
7685 kPa	735.6
7701 kPa	735.6
7716 kPa	735.6
7732 kPa	735.7
7748 kPa	735.7
7769 kPa	735.7
7789 kPa	735.7
7803 kPa	735.8
7824 kPa	735.8
7837 kPa	735.8
7854 kPa	735.8
7873 kPa	735.8
7889 kPa	735.8
7910 kPa	735.9
7929 kPa	735.9
7943 kPa	735.9
7963 kPa	735.9
7982 kPa	735.8
7997 kPa	736
8013 kPa	736.1
8030 kPa	735.9
8048 kPa	736
8065 kPa	736
8080 kPa	736
8102 kPa	735.9
8114 kPa	735.9
8137 kPa	736.1
8160 kPa	736
8178 kPa	736.1
8196 kPa	736
8213 kPa	736.1
8234 kPa	736.1
8249 kPa	736.1
8265 kPa	736.1
8289 kPa	736.2
8309 kPa	736.1
8324 kPa	736.2
8342 kPa	736.2
8357 kPa	736.1
8373 kPa	736.2
8396 kPa	736.2
8414 kPa	736.2
8435 kPa	736.2
8456 kPa	736.2
8469 kPa	736.3
8490 kPa	736.2
8512 kPa	736.2
8530 kPa	736.2
8552 kPa	736.3
8577 kPa	736.3
8591 kPa	736.3
8615 kPa	736.4
8638 kPa	736.4
8657 kPa	736.4
8679 kPa	736.3
8696 kPa	736.4
8715 kPa	736.5
8735 kPa	736.4
8752 kPa	736.4
8777 kPa	736.5
8801 kPa	736.5
8818 kPa	736.6
8844 kPa	736.5
8867 kPa	736.5
8885 kPa	736.5
8905 kPa	736.6
8925 kPa	736.5
8946 kPa	736.6
8967 kPa	736.5
8985 kPa	736.6
9006 kPa	736.6
9033 kPa	736.6
9054 kPa	736.6
9077 kPa	736.8
9098 kPa	736.6
9119 kPa	736.7
9137 kPa	736.8
9159 kPa	736.8
9178 kPa	736.8
9206 kPa	736.8
9235 kPa	736.7
9251 kPa	736.8
9280 kPa	736.9
9302 kPa	736.8
9324 kPa	737
9350 kPa	736.9
9370 kPa	736.9
9397 kPa	737
9426 kPa	736.9
9446 kPa	736.9
9469 kPa	736.9
9492 kPa	736.9
9512 kPa	737
9533 kPa	737
9562 kPa	737.1
9590 kPa	737
9615 kPa	737.1
9642 kPa	737.1
9666 kPa	737.1
9687 kPa	737.2
9718 kPa	737.2
9743 kPa	737.1
9767 kPa	737.3
9799 kPa	737.3
9821 kPa	737.3
9853 kPa	737.3
9871 kPa	737.2
9897 kPa	737.3
9920 kPa	737.3
9953 kPa	737.3
9986 kPa	737.4
10009 kPa	737.4
10042 kPa	737.4
10073 kPa	737.4
10096 kPa	737.4
10134 kPa	737.4
10165 kPa	737.6
10193 kPa	737.5
10218 kPa	737.5
10248 kPa	737.6
10278 kPa	737.6
10298 kPa	737.6
10313 kPa	737.6
10327 kPa	737.6
10344 kPa	737.6
10358 kPa	737.7
10372 kPa	737.7
10389 kPa	737.6
10406 kPa	737.7
10428 kPa	737.8
10443 kPa	737.7
10461 kPa	737.8
10481 kPa	737.6
10498 kPa	737.7
10516 kPa	737.8
10533 kPa	737.7
10550 kPa	737.8
10570 kPa	737.8
10587 kPa	737.8
10602 kPa	737.7
10625 kPa	737.8
10645 kPa	737.9
10661 kPa	737.8
10679 kPa	737.8
10697 kPa	737.9
10715 kPa	737.9
10735 kPa	737.9
10753 kPa	737.9
10768 kPa	737.8
10787 kPa	737.9
10803 kPa	737.8
10824 kPa	738
10842 kPa	738
10860 kPa	737.9
10879 kPa	738.1
10892 kPa	738
10913 kPa	738
10929 kPa	737.9
10950 kPa	738.1
10966 kPa	738
10985 kPa	738.1
11001 kPa	738.1
11023 kPa	738.1
11045 kPa	738.2
11061 kPa	738.1
11081 kPa	738.1
11094 kPa	738.1
11111 kPa	738.1
11131 kPa	738.2
11156 kPa	738.3
11170 kPa	738.1
11193 kPa	738.3
11210 kPa	738.3
11235 kPa	738.2
11255 kPa	738.1
11281 kPa	738.2
11304 kPa	738.2
11324 kPa	738.3
11348 kPa	738.3
11366 kPa	738.3
11387 kPa	738.4
11408 kPa	738.3
11425 kPa	738.4
11443 kPa	738.3
11460 kPa	738.4
11479 kPa	738.4
11492 kPa	738.4
11511 kPa	738.5
11524 kPa	738.4
11543 kPa	738.5
11560 kPa	738.4
11574 kPa	738.5
11596 kPa	738.5
11613 kPa	738.5
11628 kPa	738.4
11645 kPa	738.6
11664 kPa	738.5
11684 kPa	738.6
11701 kPa	738.6
11721 kPa	738.6
11740 kPa	738.6
11758 kPa	738.6
11775 kPa	738.6
11793 kPa	738.6
11810 kPa	738.6
11828 kPa	738.7
11845 kPa	738.7
11861 kPa	738.7
11888 kPa	738.6
11904 kPa	738.7
11927 kPa	738.7
11950 kPa	738.8
11966 kPa	738.8
11987 kPa	738.8
12010 kPa	738.7
12028 kPa	738.8
12049 kPa	738.7
12070 kPa	738.9
12089 kPa	738.8
12110 kPa	738.9
12131 kPa	738.8
12152 kPa	738.8
12170 kPa	738.8
12187 kPa	739
12201 kPa	738.9
12219 kPa	738.9
12238 kPa	738.9
12263 kPa	739.2
12285 kPa	739
12301 kPa	739
